Experimental findings from patent EP3428169A1, “6,6A-DIHYDRO FURO[3,2-B]FURAN-2-(5H)ONE DERIVATIVES, THEIR PREPARATION AND USE FOR TREATING TUMORS” (Universita' Della Calabria, priority 2017, dated 2019) are described below.

The test system of series [1] is MCF-7 cells. The series is described as follows: Cell viability assay: MTT test. Type of series: cell-based, human. The following applies: for minimal effective concentration: Homo sapiens, MCF7, 72 h treatment, tested at 1, 5, 10, 20, 40 µM, p<0.05 vs untreated, read-out: concentration(s) giving significant reduction in the viability of MCF-7 cells. In general terms: Formazan colour is commonly taken as a measure of viable cells.

Series [2] concerns MDA-MB-231 cells. The series is described as follows: Cell viability assay: MTT test. It counts as cell-based. The following applies: for minimal effective concentration: Homo sapiens, MDA-MB-231, 72 h treatment, tested at 1, 5, 10, 20, 40 µM, p<0.05 vs untreated, read-out: concentration(s) giving significant reduction in the viability of MDA-MB-231 cells.
The subject of series [3] is MDA-MB-468 cells. The series is described as follows: Cell viability assay: MTT test. Type of series: cell-based. The following applies: for minimal effective concentration: Homo sapiens, MDA-MB-468, 72 h treatment, tested at 1, 5, 10, 20, 40 µM, p<0.05 vs untreated, read-out: concentration(s) giving significant reduction in the viability of MDA-MB-468 cells.
For series [4], the system named is MCF-10A cells. The series is described as follows: Cell viability assay: MTT test, non-tumour cells. It counts as cell-based, human. Particulars: 72 h treatment; for reduction in cell viability of MCF-10A cells (in words): 1-40 µM; for concentration(s) giving inhibitory effect on viability of MCF-10A cells: tested at 1, 5, 10, 20, 40 µM. As to the method:
(§1) All cell lines were obtained from the American Type Culture Collection (ATCC, Manassas, VA, USA). The human mammary adenocarcinoma cells (MCF-7) were cultured in DMEM-F12 (Dulbecco's Modified Eagle's Medium (DME) and Ham's F-12 Nutrient Mixture) containing 5% newborn calf serum (NCS), 1% glutamine, 1% penicillin/streptomycin (Sigma-Aldrich, Milan, Italy). The TNBC cells (MDA-MB-231 and MDA-MB-468) were cultured in DMEM-F12 containing 10% heat-inactivated foetal bovine serum (FBS), 1% glutamine, 1% penicillin/streptomycin (Sigma-Aldrich, Milan, Italy). The 3T3L- cells 1 (immortalised mouse fibroblasts) were cultured in DMEM (Dulbecco's Modified Eagle's medium) containing 10% heat-inactivated foetal bovine serum (FBS) and 1% penicillin/streptomycin (Sigma-Aldrich, Milan, Italy). The human mammary epithelial cells MCF-10A were maintained in DMEM-F12 with 5% horse serum (HS), 1% glutamine, 1% penicillin/streptomycin, 5 µg/ml of insulin, 0.25 mg/ml of hydrocortisone, 20 ng/ml of hEGF (human epidermal growth factor) and 0.05 mg/ml of cholera enterotoxin (Sigma-Aldrich, Milan, Italy).
(§2) All cell lines were maintained at 37°C in a 5% CO2 humidified atmosphere and periodically screened for mycoplasma contamination.
(§3) Cell viability was evaluated using a colorimetric assay which exploits the conversion, by the mitochondrial enzyme succinate dehydrogenase (SDH), of the bromide reagent of 3-(4,5-dimethylthiazol-2-il)-2,5-diphenyltetrazole (MTT) (Sigma-Aldrich, Milan, Italy) into crystals of a product called formazan (blue-coloured).
(§4) The cells were seeded in 48-well plates (25,000 cells/well), cultured for 72h in a complete medium before being treated for 72h with different doses (1, 5, 10, 20, 40 µM) of compounds A1, A2, A3, A4 and A5. At the end of the treatment the cells were incubated in darkness for 3h with 50 µl of a solution of MTT in PBS (2 mg/ml). The MTT solution was then carefully removed and the formazan salts that had formed were solubilised by adding 200 µl of DMSO (dimethyl sulphoxide) (Sigma-Aldrich, Milan, Italy), which imparts a pinkish colour to the solution. The coloured product was detected with the spectrophotometric method, by reading absorbance at the wavelength of 570 nm.
(§5) Cell viability was evaluated with the MTT colorimetric assay as described above.

The subject of series [5] is 3T3-L1 cells. The series is described as follows: Cell viability assay: MTT test, non-tumour cells. It counts as cell-based, mouse. Particulars: 72 h treatment; for reduction in cell viability of 3T3-L1 cells (in words): 1-40 µM; for concentration(s) giving inhibitory effect on viability of 3T3-L1 cells: tested at 1, 5, 10, 20, 40 µM. How it is done: as §1, §2, §3, §4, §5

For series [6], the system named is parp-1 protein. The series is described as follows: Western blot analysis of cleavage/inactivation of parp-1. Type of series: cell-based, human. Particulars: 20 µM, 48h. How it is done: The MCF-7, MDA-MB-231 and MDA-MB-468 cells were cultured in a complete medium for 72h in 60 mm plates (1 x 10^6 cells) before being treated for 48h with compound A4 (20 µM). After the treatment the cells were lysed in ice with RIPA (Radio-Immune Precipitation Assay) buffer (50 mM Tris HCI, pH 8.0, 150 mM NaCl, 1% NP-40, 0.5% sodium deoxycholate, 0.1% SDS, sodium dodecyl sulphate), containing protease inhibitors (1 mM phenylmethylsulphonyl fluoride (PMSF), 1mM sodium orthovanadate, 20 µM aprotinin, 20 µM leupeptin) for protein extraction. The lysates were maintained under ice for 10 minutes, then centrifuged for 10 minutes at 13000 rpm at 4°C. The protein content present in the supernatant was determined spectrophotometrically using the Bradford method. The proteins were separated, based on their molecular weight, in a sodium dodecyl sulphate-polyacrylamide gel (12%) (SDS-PAGE) and then transferred onto a nitrocellulose membrane. […]
In order to be able to visualise the interaction between the primary antibody and the protein of interest, the membranes were incubated for 1 hour at room temperature, after washing with TBS-T 1X three times in order to remove any traces of the primary antibody, with a specific secondary antibody conjugated to the enzyme horseradish peroxidase (HRP) and directed against the constant portion of the primary antibody. […] In order to normalise the result, the various membranes were hot stripped for 30 minutes at 50°C with a stripping buffer (62.5 mM Tris-HCI pH 6.7, 2% SDS, 100mM β-mercaptoethanoi) and re-incubated overnight with the antibody anti-glyceraldehyde 3-phosphate dehydrogenase (GAPDH) (1: 1000) (Santa Cruz Biotechnology, Santa Cruz, CA, USA) used as a control for the quantities of proteins loaded.
In general terms: Immunoblotting shows a protein as a band on a membrane.

The subject of series [7] is bcl-2 protein. The series is described as follows: Western blot analysis of expression of anti-apoptotic bcl-2. It counts as cell-based, human. Particulars: 20 µM, 48h. As to the method:
(§6) A further confirmation of the ability of the compound of formula A4 to induce the death, by apoptosis, of MCF-7, MDA-MB231 and MDA-MB468 tumour cells was given by the evaluation, through western blot analysis, of its effect on the expression of the anti-apoptotic bcl-2 protein and on the appearance of cytochrome c in the cytosolic compartment.
(§7) The cells were cultured in a complete medium for 72 h in 60 mm plates (1 x 10^6 cells) before being treated for 48h with compound A4 (20 µM) in order to evaluate the protein expression of bcl-2 and the expression of the cytochrome c present in the cytosolic protein fraction.
For an analysis of the protein expression of bcl-2, after treatment the cells were lysed in ice with RIPA (Radio-Immune Precipitation Assay) buffer (50 mM Tris HCI, pH 8.0, 150 mM NaCl, 1% NP-40, 0.5% sodium deoxycholate, 0.1% SDS, sodium dodecyl sulphate), containing protease inhibitors (1 mM phenylmethylsulphonyl fluoride (PMSF), 1mM sodium orthovanadate, 20 µM aprotinin, 20 µM leupeptin) for protein extraction. The lysates were maintained under ice for 10 minutes, then centrifuged for 10 minutes at 13000 rpm at 4°C. The protein content present in the supernatant was determined spectrophotometrically using the Bradford method. The proteins were separated, based on their molecular weight, in a sodium dodecyl sulphate-polyacrylamide gel (12%) (SDS-PAGE) and then subjected to a western blot analysis as described above, using a specific primary anti-bcl-2 antibody (1:500) (Santa Cruz Biotechnology, Santa Cruz, CA, USA).

The test system of series [8] is cytochrome c. The series is described as follows: Western blot analysis of cytochrome c in the cytosolic protein fraction. It counts as cell-based, human. Particulars: 20 µM, 48h. How it is done:
as §6, §7
For the purpose of analysing the protein expression of the cytochrome c present in the cytosolic fraction, after treatment the cells were collected by centrifugation at 2500 rpm for 10 minutes at 4°C. The pellets were resuspended in 50 µl of sucrose buffer (250 mM sucrose, 10 mM Hepes, 10 mM KCl, 1.5 mM MgCl2, 1 mM EDTA, 1 mM EGTA) (Sigma-Aldrich, Milan, Italy) containing 20µM of aprotinin, 20 µM of leupeptin, 1mM of PMSF and 0.05% of digitonin (Sigma-Aldrich, Milan, Italy).
The cells were incubated for 20 minutes at 4°C and then centrifuged at 13000 rpm for 15 minutes at 4°C. The protein content present in the supernatant was determined spectrophotometrically using the Bradford method. The proteins were separated, based on their molecular weight, in a sodium dodecyl sulphate-polyacrylamide gel (15%) (SDS-PAGE) and then subjected to a western blot analysis as described above, using a specific primary anti-cytochrome c antibody (1:1000) (Santa Cruz Biotechnology, Santa Cruz, CA, USA).

On to `CC1(C)CC2(C)OC(=O)C([Si](C)(C)C)=C2O1` (stereo not shown) [Compound A2, 5,5,6a-trimethyl-3-(trimethylsilyl)-6,6a-dihydrofuro[3,2-b]furan-2(5H)-one], for which the minimal effective concentration in series [1] was at least 1 µM. In addition, the minimal effective concentration in series [2] is at least 1 µM. For the same compound, the minimal effective concentration in series [3] was at least 1 µM. In series [4], the “reduction in cell viability of MCF-10A cells (in words)” value was “modest” and the “concentration(s) giving inhibitory effect on viability of MCF-10A cells” value is recorded as at least 5 µM. Further, in series [5], the “reduction in cell viability of 3T3-L1 cells (in words)” value is given as “modest” and the “concentration(s) giving inhibitory effect on viability of 3T3-L1 cells” value is listed as at least 20 µM.
On to `CC12CCOC1=C([Si](C)(C)C)C(=O)O2` (stereo not shown) [Compound A3, 6a-methyl-3-(trimethylsilyl)-6,6a-dihydrofuro[3,2-b]furan-2(5H)-one], for which the minimal effective concentration was at least 10 µM in series [1], at least 5 µM in series [2] and at least 5 µM in series [3]. Further, the “reduction in cell viability of MCF-10A cells (in words)” value in series [4] is recorded as “more substantial”. In addition, in series [4], the “concentration(s) giving inhibitory effect on viability of MCF-10A cells” value was at least 10 µM. Also, the “reduction in cell viability of 3T3-L1 cells (in words)” value in series [5] is reported as “more substantial”. Also, the “concentration(s) giving inhibitory effect on viability of 3T3-L1 cells” value in series [5] was 40 µM.
Regarding `CC1(C)CC2(C)OC(=O)C(c3ccccc3)=C2O1` (stereo not shown) [Compound A1, 5,5,6a-trimethyl-3-phenyl-6,6a-dihydrofuro[3,2-b]furan-2(5H)-one], the minimal effective concentration in series [1] is at least 10 µM; in series [2], at least 10 µM; in series [3], at least 5 µM. For the same compound, the “reduction in cell viability of MCF-10A cells (in words)” value in series [4] was “more substantial”. Further, in series [4], the “concentration(s) giving inhibitory effect on viability of MCF-10A cells” value was at least 20 µM. The “reduction in cell viability of 3T3-L1 cells (in words)” value in series [5] is “more substantial”. Moreover, the “concentration(s) giving inhibitory effect on viability of 3T3-L1 cells” value in series [5] worked out at 40 µM.
On to `CC1(C)CC2(c3ccccc3)OC(=O)C([Si](C)(C)C)=C2O1` (stereo not shown) [Compound A4, 5,5-dimethyl-6a-phenyl-3-(trimethylsilyl)-6,6a-dihydrofuro[3,2-b]furan-2(5H)-one], for which the minimal effective concentration fell in the range of 1 to 40 µM in series [1], 10 to 40 µM in series [2] and 10 to 40 µM in series [3]. Also, the “reduction in cell viability of MCF-10A cells (in words)” value in series [4] is “not influenced”. The “reduction in cell viability of 3T3-L1 cells (in words)” value in series [5] was “not influenced”. The “cleavage of the parp-1 protein” value in series [6] (MCF-7 cells), in series [6] (MDA-MB-231 cells) and in series [6] (MDA-MB-468 cells) was “the cleaved form of the parp-1 protein may be seen” each time. The “expression of bcl-2” value in series [7] (MCF-7 cells), in series [7] (MDA-MB-231 cells) and in series [7] (MDA-MB-468 cells) was “decreasing the expression of bcl-2” each time. Further, the “level of cytochrome c in the cytosolic fraction” value in series [8] (MCF-7 cells), in series [8] (MDA-MB-231 cells) and in series [8] (MDA-MB-468 cells) was “increased to a significant degree” each time.
In the case of `CC1(C)CC2(c3ccccc3)OC(=O)C=C2O1` (stereo not shown) [Compound A5, 5,5-dimethyl-6a-phenyl-6,6a-dihydrofuro[3,2-b]furan-2(5H)-one], the “effect on the viability of MCF-7 cells (in words)” value in series [1] (72 h treatment, 1-40 µM) is on record as “modest but significant effect”. Besides, the minimal effective concentration was 5 to 40 µM in series [1], 20 to 40 µM in series [2] and 10 to 40 µM in series [3]. For the same compound, the “effect on the viability of MDA-MB-231 cells (in words)” value in series [2] (72 h treatment, 1-40 µM) is “modest but significant effect”. Moreover, the “effect on the viability of MDA-MB-468 cells (in words)” value in series [3] (72 h treatment, 1-40 µM) is on record as “slightly more effective”. In addition, the “reduction in cell viability of MCF-10A cells (in words)” value in series [4] was “not influenced”. Further, the “reduction in cell viability of 3T3-L1 cells (in words)” value in series [5] is reported as “not influenced”.
